For assay [1], the system named is SH-SY5Y cells. Kind of assay: Neuroprotection against glutamate-induced excitotoxic damage (MTT). The settings on record: 7.5 and 15 μmol/L; 24 h pre-treatment, then 60 mmol/L glutamate 24 h; p<0.05.
Method: In addition, gentamicin (100 μg/mL) was added, then called complete medium (CM). […] The medium was changed every two days and the cells were subcultured every five days by trypsinization at a density of 4-5×10^6 cells/75 cm^2 flask for experimental work and/or subculture of a new generation of cells for later use.
Once the cell density was known, they were seeded in a 96-well culture plate (200 μL in each well) at a concentration of 80×10^4 cells/well.
Cell viability. MTT assays: Cell viability was measured through formazan blue products obtained from the enzymatic transformation of MTT (3-(4,5-dimethyl-2-thiazolyl)-2,5-diphenyl-2Htetrazoliumbromide) by mitochondrial dehydrogenases, which are active only in viable cells. […] Then 100 μL of isobutylalcohol (SDS 10%, 2-butanol 50%, 0.25 μL HCl 2 mmol/L) was added to each well to solubilize the formazan crystals, and the optical density of each well was measured before 30 minutes at 570 nm in a Clariostar spectrophotometer (BMG Labtech). The correction of the OD values was carried out at 690 nm. Three replications were carried out for each experiment. The results were expressed as the percentage of optical density of each experimental variant in relation to the Optical density obtained for the group of cells not treated with glutamate.
Assay [2] concerns memory loss induced by an acute administration of scopolamine (ESC). Kind of assay: Y-maze, short-term spatial memory, acute scopolamine (ESC) model. Type of assay: in vivo, mice. The procedure: Young male OF-1 mice (20-25 g), supplied by the National Center for the Laboratory Animals Production (CENPALAB, Cuba), were used. Before the experiment, the animals were adapted for seven days to laboratory conditions (controlled temperature 25±2° C., relative humidity 60±10% and light/dark cycles of 12 h). During this period, and during the experiment, the animals received ad libitum water and a standard diet for rodents supplied by CENPALAB. All procedures were carried out in accordance with the European Commission guidelines for the use and care of laboratory animals and approved by the Committee for the Care of Research Animals. The minimum number of animals and duration of observations required to obtain consistent data was used.
At the end of the adaptation period, the animals were randomly distributed according to their body weights in 5 experimental groups of 12 animals per group. Scopolamine hydrobromohydrate (ESC, Sigma Aldrich) was used to induce cognitive deficit, which was dissolved in physiological saline and administered intraperitoneally (ip) at a dose of 1.5 mg/kg, 30 minutes before the test (Miranda H F et al. in. J. Biomed. Sci., 2014 21 (1): 62-62). The doses of compound 3 used were 0.1, 1, 10 and 20 mg/kg of body weight. The compound was formulated using carboxymethyl cellulose (CMC). The administration scheme was designed as follows:
Group 1 (negative control) with normal cognitive function. Two administrations with an interval of 30 minutes with vehicle (5% CMC) by oral route and saline solution by i.p. route, respectively.
Group 2 (positive control) with cognitive dysfunction. Two administrations with an interval of 30 minutes, the first with vehicle (5% CMC), the second with ESC 1 mg/kg.
Group 3, 4, 5 and 6 treated with 3 (0.1, 1, 10 and 20 mg/kg). Two administrations with an interval of 30 minutes, the first with 3 at the dose corresponding to each group, the second with ESC 1 mg/kg. The behavioral evaluation was carried out 30 minutes after this second administration.
The study of short-term spatial memory was carried out through the study of novel spatial preference, using the Y-maze behavioral paradigm (40 cm long×9 cm wide×16 cm high) with extra-labyrinthine tracks around of the maze. The test consisted of two trials separated by an interval of 2 hours. In the first training test (acquisition), the mice were placed in the center of the maze and facing the end of one of the arms whose selection was random. After being positioned, they were allowed to explore the maze for 10 minutes with one of the arms closed (novel arm). At the end of this test, the mice were returned to their original cage until the second test (recovery), during which they could freely explore the three arms of the maze for 5 minutes. The total residence time (exploration) in each arm was measured and analyzed from video recordings. The entrance to the arm was defined as the entrance of the four legs of the animal in said arm. The residence time (sec) in each arm during the recovery test of the learned task was used for the statistical analysis. The maze was cleaned with 70% ethanol between runs. All mice were transported to the behavioral testing room in their home cages at least 1 day prior to testing. The experiments were carried out between 8:00 am and 12:30 pm.
All data are expressed as the mean±standard error of the mean (SEM). The Morris water maze data was analyzed in two ways. Escape latencies in the visible platform training phase were analyzed using a two-factor ANOVA (treatment×trial). For the study of long-term memory, the last escape latency value of the training phase with the visible platform (D1 V4) and the first value of the test with the hidden platform performed 24 h later (D2T1) were used. Mice with intact long-term memory capacity should quickly reach the hidden platform in the first test. A scoring system was generated with the difference D2T1−D1 V4 and with the ratio D2T1/D1V4. […]

Assay [3] concerns memory loss induced with the chronic use of scopolamine. The experiment in a line: Morris water maze, chronic ESC model. Type of assay: in vivo, mice. The procedure:
Male C57BL/6 mice (20-25 g), supplied by the National Center for the Laboratory Animals Production (CENPALAB, Cuba) were used. During the experiment, the animals received adlibitum water and standard diet supplied by CENPALAB. All procedures were carried out in accordance with the European Commission guidelines for the use and care of laboratory animals and approved by the Committee for the Research Animals Care. The minimum number of animals and duration of observations required to obtain consistent data was used.
At the end of the adaptation period, the animals were randomly distributed according to their body weights in five experimental groups of 12 animals each. For the induction of cognitive deficit, ESC (Sigma Aldrich) was used, which was dissolved in physiological saline and administered daily intraperitoneally (ip) at a dose of 1.5 mg/kg for 2 weeks, in the morning (Park J H, et al. In J Mol Neurosci. 2016; 59 (4): 579-589). Compound 3 was prepared as a suspension, in 0.5% soluble starch (Merck Millipore), and administered orally by intragastric cannula at a daily dose of 0.1, 1, 10 mg/kg of body weight […]. The experimental groups were: […]
Morris Water Maze (MWM): Analogous to Example 2, the two-day MWM test was used to determine long-term spatial memory. […] In this way, long-term spatial memory was determined by the quotient of the escape latency values D2T1/D1V6. […]

With `CSC(=S)NCCNC(=O)CCC(=O)Nc1cccc2ccccc12` [compound 3, methyl(2-{[4-(1-naphthylamino)-4-oxobutanoyl]amino}ethyl)dithiocarbamate], the “neuronal death generated by glutamate (MTT viability)” value in assay [1] is reported as “significantly decreased”. Moreover, in assay [2] (Y-maze, acute ESC model), the “dose with the greatest effect” value came to 1 mg/kg. Besides, the “residence (exploration) time in the novel arm” value in assay [2] (compound 3 at doses higher than 1 mg/kg (10, 20 mg/kg)) is given as “a decrease in this parameter was observed”; in assay [2] (compound 3 up to the 1 mg/kg dose, p<0.01 vs ESC), “gradual increase in the exploration time, significantly different from the ESC group”. In assay [2] (compound 3 single doses 0.1 mg/kg to 10 mg/kg, 30 min before ESC, p<0.001), the “amnesia induced by ESC, preference for novel arm in Y-maze” value is on record as “significantly reversed”. Moreover, the maximum effect dose in assay [3] (MWM, chronic ESC model) was 1 mg/kg. Further, in assay [3] (compound 3 1 and 10 mg/kg oral daily, ESC 1.5 mg/kg daily, 2 weeks), the “ratio of first escape latency with hidden platform (T7) and last test with visible platform (T6)” value is given as “significantly decreased compared to the ESC group”.

The values above are taken from patent publication US20240299334A1, “PHARMACEUTICAL COMPOSITION OF NAPHTHALENE DERIVATIVES AS MULTI-TARGETED THERAPEUTIC AGENTS FOR THE TREATMENT OF ALZHEIMER'S DISEASE” (CENTRO DE NEUROCIENCIAS DE CUBA, CNEURO, priority 2020, published 2024).
